Assay results taken from ChEMBL document CHEMBL4680265, “Anti-tubulin agent vinorelbine inhibits metastasis of cancer cells by regulating epithelial-mesenchymal transition” (Eur J Med Chem, 2020).
Activity calls are given as the source filed them. The calls are words filed in the database; no cut-off is given here.

Columns and labels:
NCI-H1975 [1] = experiment: Cytotoxicity against human NCI-H1975 cells assessed as reduction in cell viability incubated for 48 hrs by MTT assay; type: functional, cell-based; settings: NCI-H1975, 48 h
HCT-116 [2] = experiment: Antiinvasive activity against human HCT-116 cells assessed as reduction in invasion at 1 to 10 nM measured after 48 hrs by DAPI staining based transwell assay; type: functional, cell-based; settings: dose 1-10 nM
HepG2 [3] = experiment: Inhibition of epithelial-mesenchymal transition in human HepG2 cells assessed as decrease in Vimentin expression at 0.1 to 10 uM by Western blot analysis; type: functional, cell-based; settings: dose 0.1-10 µM
NCI-H1975 [4] = experiment: Induction of cell cycle arrest in human NCI-H1975 cells assessed as increase in G2/M phase accumulation at 10 nM incubated for 24 hrs by propidium iodide staining based flow cytometry analysis relative to control; type: functional
HepG2 [5] = experiment: Inhibition of epithelial-mesenchymal transition in human HepG2 cells assessed as downregulation of MMP-2 by Western blot analysis; type: functional, cell-based; settings: dose 0.1-10 µM
NCI-H1975 [6] = experiment: Inhibition of epithelial-mesenchymal transition in human NCI-H1975 cells assessed as downregulation of MMP-2 by Western blot analysis; type: functional, cell-based; settings: dose 1-100 nM
HCT-116 [7] = experiment: Antimigratory activity against human HCT-116 cells assessed as reduction in migration at 5 nM measured after 96 hrs by scratch wound healing based inverted microscopic analysis relative to control; type: functional
NCI-H1975 [8] = experiment: Inhibition of epithelial-mesenchymal transition in human NCI-H1975 cells assessed as increase in Vimentin expression at 1 to 100 nM by Western blot analysis; type: functional, cell-based; settings: dose 1-100 nM
NCI-H1975 [9] = experiment: Antimigratory activity against human NCI-H1975 cells assessed as reduction in migration at 1 nM measured after 96 hrs by scratch wound healing based inverted microscopic analysis relative to control; type: functional
NCI-H1975 [10] = experiment: Inhibition of epithelial-mesenchymal transition in human NCI-H1975 cells assessed as increase in E-cadherin expression at 1 to 100 nM by Western blot analysis; type: functional, cell-based; settings: dose 1-100 nM
HCT-116 [11] = experiment: Cytotoxicity against human HCT-116 cells assessed as reduction in cell viability incubated for 48 hrs by MTT assay; type: functional, cell-based; settings: HCT-116, 48 h
HCT-116 [12] = experiment: Induction of apoptosis in human HCT-116 cells assessed as decrease in Bcl-2 expression at 0.01 to 1 uM incubated for 48 hrs by Western blot analysis; type: functional, cell-based; settings: dose 0.01-1 µM
NCI-H1975 [13] = experiment: Inhibition of epithelial-mesenchymal transition in human NCI-H1975 cells assessed as downregulation of Snail-1 by Western blot analysis; type: functional, cell-based; settings: dose 1-100 nM
HCT-116 [14] = experiment: Cytotoxicity against human HCT-116 cells assessed as effect on cell morphology incubated for 48 hrs by DAPI staining based fluorescence microscopy; type: functional; settings: dose 0.01-1 µM
HepG2 [15] = experiment: Induction of apoptosis in human HepG2 cells assessed as decrease in Bcl-xl expression at 0.1 to 10 uM incubated for 48 hrs by Western blot analysis; type: functional, cell-based; settings: dose 0.1-10 µM
HepG2 [16] = experiment: Inhibition of epithelial-mesenchymal transition in human HepG2 cells assessed as downregulation of MMP-9 by Western blot analysis; type: functional, cell-based; settings: dose 0.1-10 µM
HCT-116 [17] = experiment: Induction of cell cycle arrest in human HCT-116 cells assessed as increase in G2/M phase accumulation at 0.01 to 1 uM incubated for 24 hrs by propidium iodide staining based flow cytometry analysis; type: functional; settings: dose 0.01-1 µM
HCT-116 [18] = experiment: Inhibition of epithelial-mesenchymal transition in human HCT-116 cells assessed as downregulation of MMP-2 by Western blot analysis; type: functional, cell-based; settings: dose 0.01-1 µM
NCI-H1975 [19] = experiment: Inhibition of colony formation in human NCI-H1975 cells at 1 to 100 nM incubated for 3 to 4 days by crystal violet staining based assay; type: functional, cell-based; settings: dose 1-100 nM, time 3-4 day
HCT-116 [20] = experiment: Inhibition of epithelial-mesenchymal transition in human HCT-116 cells assessed as downregulation of Snail-1 by Western blot analysis; type: functional, cell-based; settings: dose 0.01-1 µM
NCI-H1975 [21] = experiment: Induction of cell cycle arrest in human NCI-H1975 cells assessed as increase in G2/M phase accumulation at 100 nM incubated for 24 hrs by propidium iodide staining based flow cytometry analysis relative to control; type: functional
NCI-H1975 [22] = experiment: Induction of apoptosis in human NCI-H1975 cells assessed as increase in early apoptotic cells at 1 to 100 nM incubated for 48 hrs by annexin V-FITC and PI staining based flow cytometry analysis; type: functional, cell-based; settings: dose 1-100 nM
NCI-H1975 [23] = experiment: Induction of cell cycle arrest in human NCI-H1975 cells assessed as decrease in cyclin B1 level at 1 to 100 nM incubated for 24 hrs by Western blot analysis; type: functional, cell-based; settings: dose 1-100 nM
HCT-116 [24] = experiment: Inhibition of epithelial-mesenchymal transition in human HCT-116 cells assessed as decrease in Vimentin expression at 0.01 to 1 uM by Western blot analysis; type: functional, cell-based; settings: dose 0.01-1 µM
NCI-H1975 [25] = experiment: Antimigratory activity against human NCI-H1975 cells assessed as reduction in migration at 10 nM measured after 96 hrs by scratch wound healing based inverted microscopic analysis relative to control; type: functional
HCT-116 [26] = experiment: Induction of apoptosis in human HCT-116 cells assessed as increase in late apoptotic cells at 0.01 to 1 uM incubated for 48 hrs by annexin V-FITC and PI staining based flow cytometry analysis; type: functional, cell-based; settings: dose 0.01-1 µM
HepG2 [27] = experiment: Induction of cell cycle arrest in human HepG2 cells assessed as increase in G2/M phase accumulation at 0.1 to 10 uM incubated for 24 hrs by propidium iodide staining based flow cytometry analysis; type: functional; settings: dose 0.1-10 µM
HepG2 [28] = experiment: Induction of apoptosis in human HepG2 cells assessed as decrease in Bcl-2 expression at 0.1 to 10 uM incubated for 48 hrs by Western blot analysis; type: functional, cell-based; settings: dose 0.1-10 µM
HepG2 [29] = experiment: Antimigratory activity against human HepG2 cells assessed as reduction in migration at 10 nM measured after 96 hrs by scratch wound healing based inverted microscopic analysis relative to control; type: functional
HCT-116 [30] = experiment: Induction of apoptosis in human HCT-116 cells assessed as increase in Bax expression at 0.01 to 1 uM incubated for 48 hrs by Western blot analysis; type: functional, cell-based; settings: dose 0.01-1 µM

CCC1=C[C@@H]2CN(C1)Cc1c([nH]c3ccccc13)[C@@](C(=O)OC)(c1cc3c(cc1OC)N(C)[C@H]1[C@@](O)(C(=O)OC)[C@H](OC(C)=O)[C@]4(CC)C=CCN5CC[C@]31[C@@H]54)C2 [VINORELBINE]
IC50 (NCI-H1975 [1]): 8 nM | inhibition (HCT-116 [2]): Active | inhibition (HepG2 [3]): inactive | Activity (NCI-H1975 [4]): 34.31% | inhibition (HepG2 [5]): Dose-dependent effect | inhibition (NCI-H1975 [6]): Dose-dependent effect | inhibition at 0.005 µM (HCT-116 [7]): 28.5% | inhibition (NCI-H1975 [8]): Active | inhibition at 0.001 µM (NCI-H1975 [9]): 0.7% | inhibition (NCI-H1975 [10]): Active | IC50 (HCT-116 [11]): 14.9 nM | Activity (HCT-116 [12]): Active | inhibition (NCI-H1975 [13]): Dose-dependent effect | Activity (HCT-116 [14]): Dose-dependent effect | Activity (HepG2 [15]): Active | inhibition (HepG2 [16]): Dose-dependent effect | Activity (HCT-116 [17]): Active | inhibition (HCT-116 [18]): Dose-dependent effect | inhibition (NCI-H1975 [19]): Active | inhibition (HCT-116 [20]): Dose-dependent effect | Activity (NCI-H1975 [21]): 51.85% | Activity (NCI-H1975 [22]): Active | Activity (NCI-H1975 [23]): Active | inhibition (HCT-116 [24]): inactive | inhibition at 0.01 µM (NCI-H1975 [25]): 70.5% | Activity (HCT-116 [26]): Active | Activity (HepG2 [27]): Active | Activity (HepG2 [28]): Active | inhibition at 0.01 µM (HepG2 [29]): 47.4% | Activity (HCT-116 [30]): Active
